Test results taken from patent publication US10285382B2 (priority 2017, dated 2019).
Values joined by “and” are separate entries in the source; they are usually repeats but may differ in a detail not shown here. Equal values may be shown once. Read-outs that look alike come from different tables or passages of the source.

System: eggs
[1] = 4 day delta: Day 4 DHP+ versus Day 4 DHP−
[2] = 5 day delta: Day 5 DHP+ versus Day 5 DHP−
[3] = 6 day delta: Day 6 DHP+ versus Day 6 DHP−
[4] = Day 4 DHP+, summary over replicates stored 4 days
[5] = Day 5 DHP+, summary over replicates stored 5 days
[6] = Day 6 DHP+, summary over replicates stored 6 days
[7] = Day 7 DHP+, summary over replicates stored 7 days
[8] = Day 7 Delta: Day 7 DHP+ versus Day 7 DHP−
[9] = Delta: Avg. Trtd versus Avg. Untrd, all storage times
[10] = an additional day (five days) of DHP gas treatment, vs untreated
[11] = eggs treated four days, vs untreated
[12] = seven day storage, vs untreated
[13] = with DHP gas, Mean / Avg. Trtd of 22 replicates, storage 4 to 7 days
[14] = with DHP gas, egg storage 4 days, single replicates of 90 eggs
[15] = with DHP gas, egg storage 5 days, single replicates of 90 eggs
[16] = with DHP gas, egg storage 6 days, single replicates of 90 eggs
[17] = with DHP gas, egg storage 7 days, single replicates of 90 eggs
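Note: paired egg replicates incubated to hatching under standard commercial conditions, then each category scored at hatch as percent of eggs in the replicate.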

## OO [DHP, dry hydrogen peroxide]
[1]
  % Infertile, delta: 0.64%
  Chick A, delta: 0.14%
  Chick B, delta: −0.14%
  Chick Weight, delta: 0.89 g
  Cont, delta: 0.00%
  Crack, delta: 0.32%
  Cull dead cks, delta: 0.00%
  Dead pip, delta: −0.16%
  Early dead, delta: −0.33%
  Fertile Hatchability, delta: 0.12%
  Late dead, delta: −0.64%
  Live pip, delta: 0.63%
  Mid dead, delta: 0.16%
  Total Hatchability, delta: −0.64%
[2]
  % Infertile, delta: 1.84%
  Chick A, delta: 1.73%
  Chick B, delta: −1.73%
  Chick Weight, delta: 0.85 g
  Cont, delta: 0.00%
  Crack, delta: −0.19%
  Cull dead cks, delta: 0.00%
  Dead pip, delta: −0.37%
  Early dead, delta: −1.70%
  Fertile Hatchability, delta: 3.20%
  Late dead, delta: −2.05%
  Live pip, delta: 0.37%
  Mid dead, delta: 0.74%
  Total Hatchability, delta: 1.36%
[3]
  % Infertile, delta: 0.94%
  Chick A, delta: −0.57%
  Chick B, delta: 0.57%
  Chick Weight, delta: 0.49 g
  Cont, delta: 0.00%
  Crack, delta: 0.00%
  Cull dead cks, delta: −0.48%
  Dead pip, delta: −0.48%
  Early dead, delta: −2.77%
  Fertile Hatchability, delta: 4.67%
  Late dead, delta: −0.82%
  Live pip, delta: −0.16%
  Mid dead, delta: 0.48%
  Total Hatchability, delta: 2.96%
[4]
  % Infertile: 2.39%
  Chick A: 96.98%
  Chick B: 3.02%
  Chick Weight: 44.69 g
  Cont: 0.00%
  Crack: 0.48%
  Cull dead cks: 0.00%
  Dead pip: 0.16%
  Early dead: 4.12%
  Fertile Hatchability: 92.21%
  Late dead: 1.74%
  Live pip: 0.95%
  Mid dead: 0.16%
  Total Hatchability: 89.99%
[5]
  % Infertile: 4.44%
  Chick A: 98.37%
  Chick B: 1.64%
  Chick Weight: 44.29 g
  Cont: 0.00%
  Crack: 0.00%
  Cull dead cks: 0.00%
  Dead pip: 0.00%
  Early dead: 1.85%
  Fertile Hatchability: 95.33%
  Late dead: 1.11%
  Live pip: 0.56%
  Mid dead: 0.93%
  Total Hatchability: 91.11%
[6]
  % Infertile: 2.22%
  Chick A: 96.88%
  Chick B: 3.12%
  Chick Weight: 44.30 g
  Cont: 0.00%
  Crack: 0.00%
  Cull dead cks: 0.00%
  Dead pip: 0.00%
  Early dead: 2.70%
  Fertile Hatchability: 94.14%
  Late dead: 2.06%
  Live pip: 0.16%
  Mid dead: 0.79%
  Total Hatchability: 92.06%
[7]
  % Infertile: 0.56%
  Chick A: 97.06%
  Chick B: 2.94%
  Chick Weight: 44.68 g
  Cont: 0.00%
  Crack: 0.00%
  Cull dead cks: 0.56%
  Dead pip: 0.00%
  Early dead: 1.11%
  Fertile Hatchability: 94.98%
  Late dead: 1.67%
  Live pip: 1.11%
  Mid dead: 0.56%
  Total Hatchability: 94.44%
[8]
  % Infertile, delta: 0.00%
  Chick A, delta: −1.17%
  Chick B, delta: 1.17%
  Chick Weight, delta: 1.10 g
  Cont, delta: −0.56%
  Crack, delta: 0.00%
  Cull dead cks, delta: 0.56%
  Dead pip, delta: 0.00%
  Early dead, delta: −2.78%
  Fertile Hatchability, delta: 0.56%
  Late dead, delta: 0.55%
  Live pip, delta: 1.11%
  Mid dead, delta: 0.56%
  Total Hatchability, delta: 0.56%
[9]
  % Infertile, delta: 1.00%
  Chick A, delta: 0.23%
  Chick B, delta: −0.23%
  Chick Weight, delta: 0.77 g
  Cont, delta: −0.05%
  Crack, delta: 0.05%
  Cull dead cks, delta: −0.10%
  Dead pip, delta: −0.30%
  Early dead, delta: −1.70%
  Fertile Hatchability, delta: 2.45%
  Late dead, delta: −0.97%
  Live pip, delta: 0.35%
  Mid dead, delta: 0.45%
  Total Hatchability, delta: 1.16%
[10]
  increase in fertile hatchability: 3.2%
  increase in total hatchability: 1.3%
  increased weight: 0.85 grams
At day 7
  DHP gas treated eggs observed to be contaminated: none
Death during incubation, vs untreated
  decrease in number of early deaths: about 1.7%
[11]
  change in fertile hatchability: 0.12%
  change in total hatchability: −0.64%
  increased weight: 0.89 g
[12]
  increase of fertile hatchability: 0.56%
  increase of total hatchability: 0.56%
  increased weight: 1.10 grams
Six days, vs untreated
  increase of fertile hatchability: 4.67%
  increase of total hatchability: 2.96%
  increased weight: 0.49 grams
Vs untreated
  mid cycle deaths: decreased
  number of live pip eggs: increases
Vs untreated eggs
  improvement in number of A grade chicks: 0.23%
Vs untreated eggs, on-site storage 4 to 7 days at about 20° C.
  increase of average chick weight: 0.77 grams
Vs untreated eggs, on-site storage 4 to 7 days, listed as DHP gas
  increase of average chick weight: 1.7% and 1.8%
[13]
  % Infertile: 2.73%
  Chick A: 97.34%
  Chick B: 2.66%
  Chick Weight: 44.46 g
  Cont: 0.00%
  Crack: 0.15%
  Cull dead cks: 0.05%
  Dead pip: 0.05%
  Early dead: 2.78%
  Fertile Hatchability: 93.93%
  Late dead: 1.67%
  Live pip: 0.61%
  Mid dead: 0.61%
  Total Hatchability: 91.36%
[14]
  Cont: 0.00%
  Crack: 0.00% (5×) and 1.11% and 2.22%
  Cull dead: 0.00%
  Dead pip: 0.00% (6×) and 1.11%
  Live pip: 1.11% (2×) and 0.00% (4×) and 4.44%
  Mid dead: 0.00% (6×) and 1.11%
[15]
  Cont: 0.00%
  Crack: 0.00%
  Cull dead: 0.00%
  Dead pip: 0.00%
  Early dead: 2.22% (2×) and 1.11% (3×) and 3.33%
  Late dead: 0.00% (3×) and 2.22% (3×)
  Live pip: 0.00% (4×) and 1.11% and 2.22%
  Mid dead: 0.00% (2×) and 1.11% (3×) and 2.22%
[16]
  Cont: 0.00%
  Crack: 0.00%
  Cull dead: 0.00%
  Dead pip: 0.00%
  Early dead: 2.22% (5×) and 3.33% and 4.44%
  Live pip: 0.00% (6×) and 1.11%
  Mid dead: 1.11% (3×) and 0.00% (3×) and 2.22%
[17]
  % Infer: 1.11% and 0.00%
  Chick A: 96.47% and 97.65%
  Chick B: 3.53% and 2.35%
  Chick Weight: 44.94 g and 44.41 g
  Cont: 0.00%
  Crack: 0.00%
  Cull dead: 1.11% and 0.00%
  Dead pip: 0.00%
  Early dead: 1.11%
  Fertile Hatchblty: 95.51% and 94.44%
  Late dead: 2.22% and 1.11%
  Live pip: 0.00% and 2.22%
  Mid dead: 0.00% and 1.11%
  Total Hatchblty: 94.44%
